Laboratory results taken from publication PMC10725991, “Kaempferol is a novel antiviral agent against channel catfish virus infection through blocking viral attachment and penetration in vitro” (Frontiers in Veterinary Science, 2023).

How the values were obtained:
[1] = test system: CCV-induced CPE in CCO cells; experiment: CPE reduction assay; assay type: cell-based, Channel catfish virus (CCV, Ictalurid herpesvirus 1)
Experimental: To test the anti-CCV effect of tested compounds in the preliminary screening, CCO cells were seeded in 24-well plates and cultured to reach approximately 90% confluence in each well at 28°C. Subsequently, the cells were infected with the CCV at 10^3 TCID50/ml at 28°C for 1 h. After that, the cell culture medium was replaced using an isopycnic DMEM medium containing the maximum safe concentration of indicated compounds. CCV-infected cells treated with DMSO served as a negative control, whereas CCV-infected cells treated with acyclovir (2.5 μg/mL) served as a positive control ([33]). After 36 h treatment, cell lysates were collected to test the CCV gene expression by the RT-qPCR, and the percentage inhibition of CCV infection by individual compound was calculated. According to the percentage inhibition results, we further detected the antiviral activity of kaempferol at maximum safe concentration by viral cytopathic effects (CPE) and western blot analysis.
For analyzing the CPE reduction of viral infected CCO cells by kaempferol, the CCO cells were seeded in 24-well plates and cultured overnight at 28°C before infection. Then, the monolayer cells were infected with CCV at 10^3 TCID50/ml for 1 h. Subsequently, the infected cells were treated with kaempferol at different concentrations (2.5, 5, 7.5, 10, 12.5, and 15 μg/mL), respectively. […]

[2] = test system: CCV in CCO cells; experiment: Time-of-drug-addition assay, RT-qPCR; assay type: cell-based, Channel catfish virus (CCV, Ictalurid herpesvirus 1)
Experimental: The CCO cells seeded in 24-well plates were infected with CCV under five different treatment conditions: (i) Control: CCO cells cultured in the maintenance DMEM media were infected by CCV for 1 h. (ii) Pre-treatment: CCO cells were pre-treated with 15 μg/mL of kaempferol for 2 h before CCV infection. (iii) Virus treatment: CCV was pre-incubated with kaempferol at 37°C for 2 h before being added to CCO cells. (iv) Virus and kaempferol co-treatment: CCO cells were treated in media containing both kaempferol and CCV at 28°C for 1 h. (v) Post-treatment: CCO cells were incubated with CCV at 28°C for 1 h. After that, kaempferol (15 μg/mL) was supplemented at 1, 2, 4, 8, 12, and 24 h post-infection. In all treatment conditions, the unabsorbed CCV was washed off twice by PBS after 1 h of adsortion. The samples were collected to test the CCV gene expression by the RT-qPCR at 24 h and 36 h after the corresponding treatments.
For RT-qPCR, the total RNA was isolated from CCV-infected cells using RnaExTM (Trizol)^a reagent (GENERAY, China), and reversed transcribed applying a HiScript III RT SuperMix with gDNA wiper (Vazyme, China) following the manufacturer’s instructions. Quantitative PCR was performed with a LightCycler 96 Real-Time PCR Detection System (Roche, USA) using ChamQ Universal SYBR qPCR Master Mix (Vazyme, China) with the following cycle conditions: 95°C for 30 s, followed by 40 cycles of 95°C for 10 s and 60°C for 30 s. To assess the specificity of each amplicon, melt curve analysis was also performed at the end of each thermal profile. The primers used for PCR are listed in Supplementary Table S2. Each individual sample was run in triplicate wells. Fold changes of the selected gene vs 18 s (internal reference) were calculated by the 2^−△△Ct method.
Figure 5 Time of drug-addition assay of kaempferol in CCV inhibition. (A) The schematic diagram of the experimental settings. The CCO cells were infected with CCV for 1 h followed by the indicated kaempferol treatments. Cell lysates at indicated time post-infection were subjected to RT-qPCR. (B,C) The relative expression levels of the CCV ORF 39 and ORF 59 genes with cell-treatment, virus-treatment and co-treatment at 24 h and 36 h post-infection. (D) The relative expression levels of the CCV ORF 39 and ORF 59 genes with post-treatment at 36 h post-infection. The selected gene level was normalized to 18 s (internal reference) using the 2^− ΔΔCT method. Data represent mean ± SD. The p value was determined by *p < 0.05, **p < 0.01.

O=c1c(O)c(-c2ccc(O)cc2)oc2cc(O)cc(O)c12 [Kaempferol]
CCV-induced CPE ([1]; kaempferol 10–15 μg/mL, until 36 h): no obvious CPE | CPE induced by CCV infection ([1]; maximum safe concentration (47.53 μg/mL), 36 h post-infection): significantly reduced CPE | intracellular CCV mRNA level, pre-treatment of cells ([2]; 15 μg/mL for 2 h before CCV infection, 24 h post CCV infection): effectively decreased | intracellular CCV mRNA level, post-treatment ([2]; 15 μg/mL kaempferol supplemented 1-24 h post-infection, read at 36 h): significantly reduced | viral ORF 39 and ORF 59 mRNA levels, co-treatment ([2]; 15 μg/mL kaempferol with CCV at 28°C for 1 h): failed to decrease | decrease of viral mRNA level, kaempferol supplemented at 24 h post-infection ([2]; 15 μg/mL, post-treatment, read at 36 h post-infection): approximately 40% | intracellular CCV mRNA level, virus-treatment ([2]; CCV pre-incubated with kaempferol 2 h before addition to cells): significantly reduced
